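Exposure lasted 48 hours, with cells grown in 96-well plates and compounds tested at five concentrations. Abbreviation: GI50, concentration required for 50% inhibition of growth.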 Active and inactive are the calls of the source. No stated cut-off is given here; in the data, active = GI50 up to about 1.1 µM and inactive = higher.
Columns and labels:
Assay in all cases: NCI tumour cell line growth inhibition, 48 h
786-0 = system: 786-0
A498 = system: A498
A549 = system: A549
ACHN = system: ACHN
BT-549 = system: BT-549
CAKI-1 = system: CAKI-1
CCRF-CEM = system: CCRF-CEM
COLO 205 = system: COLO 205
DU-145 = system: DU-145
EKVX = system: EKVX
HCC 2998 = system: HCC 2998
HCT-116 = system: HCT-116
HCT-15 = system: HCT-15
HL-60 = system: HL-60
HOP-62 = system: HOP-62
HOP-92 = system: HOP-92
HT-29 = system: HT-29
Hs-578T = system: Hs-578T
IGROV-1 = system: IGROV-1
K562 = system: K562
KM12 = system: KM12
LOX IMVI = system: LOX IMVI
M14 = system: M14
MCF7 = system: MCF7
MDA-MB-231 = system: MDA-MB-231
MDA-MB-435 = system: MDA-MB-435
MDA-N = system: MDA-N
MOLT-4 = system: MOLT-4
Malme-3M = system: Malme-3M
NCI-H226 = system: NCI-H226
NCI-H23 = system: NCI-H23
NCI-H460 = system: NCI-H460
NCI-H522 = system: NCI-H522
NCI/ADR-RES = system: NCI/ADR-RES
OVCAR-3 = system: OVCAR-3
OVCAR-4 = system: OVCAR-4
OVCAR-5 = system: OVCAR-5
OVCAR-8 = system: OVCAR-8
PC-3 = system: PC-3
RPMI-8226 = system: RPMI-8226
RXF 393 = system: RXF 393
SF-268 = system: SF-268
SF-295 = system: SF-295
SF-539 = system: SF-539
SK-MEL-28 = system: SK-MEL-28
SK-MEL-2 = system: SK-MEL-2
SK-MEL-5 = system: SK-MEL-5
SK-OV-3 = system: SK-OV-3
SN12C = system: SN12C
SNB-19 = system: SNB-19
SNB-75 = system: SNB-75
SR = system: SR
SW-620 = system: SW-620
T47D = system: T47D
TK-10 = system: TK-10
U-251 = system: U-251
UACC-257 = system: UACC-257
UACC-62 = system: UACC-62
UO-31 = system: UO-31

FC(F)(F)c1ccc2c(c1)nc(Cc1ccccc1)n2C[C@@H]1CCCN2CCCCC12 (stereo partly drawn)
GI50 (786-0): 13.9 µM (inactive)
GI50 (A498): 15.5 µM (inactive)
GI50 (A549): 15 µM (inactive)
GI50 (ACHN): 13.5 µM (inactive)
GI50 (BT-549): 14 µM (inactive)
GI50 (CAKI-1): 15.1 µM (inactive)
GI50 (CCRF-CEM): 17.1 µM (inactive)
GI50 (COLO 205): 14.1 µM (inactive)
GI50 (DU-145): 15.5 µM (inactive)
GI50 (EKVX): 8.47 µM (inactive)
GI50 (HCC 2998): 4.68 µM (inactive)
GI50 (HCT-116): 14.1 µM (inactive)
GI50 (HCT-15): 14.6 µM
GI50 (HL-60): 1.59 µM (inactive)
GI50 (HOP-62): 14.6 µM (inactive)
GI50 (HOP-92): 8.85 µM (inactive)
GI50 (HT-29): 12 µM (inactive)
GI50 (Hs-578T): 18.5 µM (inactive)
GI50 (IGROV-1): 12.9 µM (inactive)
GI50 (K562): 18.9 µM (inactive)
GI50 (KM12): 15.8 µM (inactive)
GI50 (LOX IMVI): 15.1 µM (inactive)
GI50 (M14): 10.6 µM (inactive)
GI50 (MCF7): 14.1 µM (inactive)
GI50 (MDA-MB-231): 14.2 µM (inactive)
GI50 (MDA-MB-435): 14.9 µM (inactive)
GI50 (MDA-N): 12.7 µM (inactive)
GI50 (MOLT-4): 12.9 µM (inactive)
GI50 (Malme-3M): 15.2 µM (inactive)
GI50 (NCI-H226): 19.2 µM (inactive)
GI50 (NCI-H23): 14.6 µM (inactive)
GI50 (NCI-H460): 15.2 µM (inactive)
GI50 (NCI-H522): 14 µM (inactive)
GI50 (NCI/ADR-RES): 15.1 µM (inactive)
GI50 (OVCAR-3): 14.8 µM (inactive)
GI50 (OVCAR-4): 15.2 µM (inactive)
GI50 (OVCAR-5): 16.1 µM (inactive)
GI50 (OVCAR-8): 15.3 µM (inactive)
GI50 (PC-3): 14.3 µM (inactive)
GI50 (RPMI-8226): 17.1 µM (inactive)
GI50 (RXF 393): 8.55 µM (inactive)
GI50 (SF-268): 14.8 µM (inactive)
GI50 (SF-295): 15.8 µM (inactive)
GI50 (SF-539): 18.8 µM (inactive)
GI50 (SK-MEL-28): 16.2 µM (inactive)
GI50 (SK-MEL-2): 16.3 µM (inactive)
GI50 (SK-MEL-5): 14.4 µM (inactive)
GI50 (SK-OV-3): 17.5 µM (inactive)
GI50 (SN12C): 13.1 µM (inactive)
GI50 (SNB-19): 14.8 µM (inactive)
GI50 (SNB-75): 15.1 µM (inactive)
GI50 (SR): 10.1 µM (inactive)
GI50 (SW-620): 21.7 µM (inactive)
GI50 (T47D): 14.4 µM (inactive)
GI50 (TK-10): 17.1 µM (inactive)
GI50 (U-251): 15.7 µM (inactive)
GI50 (UACC-257): 14.7 µM (inactive)
GI50 (UACC-62): 16.7 µM (inactive)
GI50 (UO-31): 0.19 µM (active)

COc1ccc(/N=c2\ssc(C(=S)Nc3ccc(OC)cc3)c2S)cc1
GI50 (786-0): > 100 µM (inactive)
GI50 (A498): > 100 µM (inactive)
GI50 (A549): 83.6 µM (inactive)
GI50 (ACHN): > 100 µM (inactive)
GI50 (BT-549): > 100 µM (inactive)
GI50 (CAKI-1): > 100 µM (inactive)
GI50 (CCRF-CEM): 31.6 µM (inactive)
GI50 (COLO 205): > 100 µM (inactive)
GI50 (DU-145): > 100 µM (inactive)
GI50 (EKVX): > 100 µM (inactive)
GI50 (HCC 2998): 32.4 µM (inactive)
GI50 (HCT-116): 88.1 µM (inactive)
GI50 (HCT-15): 64.9 µM
GI50 (HL-60): 36.3 µM (inactive)
GI50 (HOP-62): > 100 µM (inactive)
GI50 (HOP-92): > 100 µM (inactive)
GI50 (HT-29): > 100 µM (inactive)
GI50 (Hs-578T): > 100 µM (inactive)
GI50 (IGROV-1): > 100 µM (inactive)
GI50 (K562): 37.7 µM (inactive)
GI50 (KM12): > 100 µM (inactive)
GI50 (LOX IMVI): > 100 µM (inactive)
GI50 (M14): 71 µM (inactive)
GI50 (MCF7): 69 µM (inactive)
GI50 (MDA-MB-231): > 100 µM (inactive)
GI50 (MDA-MB-435): > 100 µM (inactive)
GI50 (MDA-N): > 100 µM (inactive)
GI50 (MOLT-4): > 100 µM (inactive)
GI50 (Malme-3M): > 100 µM (inactive)
GI50 (NCI-H226): > 100 µM (inactive)
GI50 (NCI-H23): > 100 µM (inactive)
GI50 (NCI-H460): 39.6 µM (inactive)
GI50 (NCI-H522): > 100 µM (inactive)
GI50 (NCI/ADR-RES): > 100 µM (inactive)
GI50 (OVCAR-3): > 100 µM (inactive)
GI50 (OVCAR-4): > 100 µM (inactive)
GI50 (OVCAR-5): > 100 µM (inactive)
GI50 (OVCAR-8): 97.5 µM (inactive)
GI50 (PC-3): > 100 µM (inactive)
GI50 (RPMI-8226): > 100 µM (inactive)
GI50 (RXF 393): > 100 µM (inactive)
GI50 (SF-268): > 100 µM (inactive)
GI50 (SF-295): > 100 µM (inactive)
GI50 (SF-539): > 100 µM (inactive)
GI50 (SK-MEL-28): 6.68 µM (inactive)
GI50 (SK-MEL-2): > 100 µM (inactive)
GI50 (SK-MEL-5): > 100 µM (inactive)
GI50 (SK-OV-3): > 100 µM (inactive)
GI50 (SN12C): > 100 µM (inactive)
GI50 (SNB-19): > 100 µM (inactive)
GI50 (SNB-75): > 100 µM (inactive)
GI50 (SR): > 100 µM (inactive)
GI50 (SW-620): > 100 µM (inactive)
GI50 (T47D): > 100 µM (inactive)
GI50 (TK-10): > 100 µM (inactive)
GI50 (U-251): 75.7 µM (inactive)
GI50 (UACC-257): > 100 µM (inactive)
GI50 (UACC-62): > 100 µM (inactive)
GI50 (UO-31): > 100 µM (inactive)
